Source: US20240254119A1 (THIRD HARMONIC BIO, INC., priority 2022, published 2024)

Experiments:
[1] = molecular target: T1, PDGFRα (Homo sapiens, UniProt P16234); assay: HTRF biochemical assay, PDGFRα; details: Table 4, read-out: PDFGRα Biochemical IC50 avg
T1 construct: purchased Millipore 14-467 (lot 26321_ACTI)
In short: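 Kinase phosphorylation of a FAM-labelled peptide substrate, with ATP and Mn^2+ cofactors, run for 3 h at 25 °C, with optional enzyme–compound pre-incubation. Reactions were quenched with EDTA, and phosphopeptide was detected by anti-phosphotyrosine antibody HTRF.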

[2] = molecular target: T2, KIT-NanoLuc fusion in HEK293 cells (Homo sapiens, UniProt P10721); assay: NanoBRET cellular target engagement assay, KIT; assay type: cell-based
T2 construct: expressed in transfected cells; host or cells: HEK293, transient transfection
T2 sequence (P10721 26-976): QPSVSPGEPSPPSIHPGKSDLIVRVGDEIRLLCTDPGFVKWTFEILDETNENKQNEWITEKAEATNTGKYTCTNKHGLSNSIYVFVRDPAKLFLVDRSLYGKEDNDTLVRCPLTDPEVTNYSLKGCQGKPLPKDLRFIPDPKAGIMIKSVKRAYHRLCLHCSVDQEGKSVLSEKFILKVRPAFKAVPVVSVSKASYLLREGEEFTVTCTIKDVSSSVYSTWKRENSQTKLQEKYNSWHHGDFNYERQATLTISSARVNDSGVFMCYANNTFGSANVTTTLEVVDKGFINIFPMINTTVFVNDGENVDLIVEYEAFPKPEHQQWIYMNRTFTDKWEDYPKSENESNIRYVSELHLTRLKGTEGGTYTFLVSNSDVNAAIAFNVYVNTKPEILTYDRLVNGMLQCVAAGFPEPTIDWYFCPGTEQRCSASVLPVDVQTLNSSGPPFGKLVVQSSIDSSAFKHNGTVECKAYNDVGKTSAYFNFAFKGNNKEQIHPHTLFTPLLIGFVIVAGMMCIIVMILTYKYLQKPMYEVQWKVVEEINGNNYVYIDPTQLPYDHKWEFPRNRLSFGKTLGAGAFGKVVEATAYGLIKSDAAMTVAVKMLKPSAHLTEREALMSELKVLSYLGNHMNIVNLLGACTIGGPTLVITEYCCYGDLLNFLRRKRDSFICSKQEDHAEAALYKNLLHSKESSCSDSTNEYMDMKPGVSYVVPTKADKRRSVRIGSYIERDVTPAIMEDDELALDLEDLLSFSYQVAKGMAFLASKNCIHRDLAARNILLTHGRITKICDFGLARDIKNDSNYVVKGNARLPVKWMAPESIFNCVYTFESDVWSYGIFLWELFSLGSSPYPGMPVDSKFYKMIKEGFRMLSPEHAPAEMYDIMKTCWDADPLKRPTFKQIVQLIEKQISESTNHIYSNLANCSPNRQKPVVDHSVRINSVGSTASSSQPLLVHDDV
Procedure: (§1) Exemplary compounds were tested for their ability to inhibit target engagement of KIT or CSF-1R kinases through competitive displacement of a Nano-Luc luciferase kinase fusion in HEK293 cells.
(§2) The NanoBRET target engagement assay employs an energy transfer technique designed to measure molecular proximity in living cells. The assay measures the apparent affinity of test compounds by competitive displacement of the NanoBRET tracer, reversibly bound to a NanoLuc luciferase-kinase fusion construct in cells. The intracellular binding affinity and selectivity are physiologically relevant and fundamental to the pharmacological mechanism of the compounds. While biochemical and biophysical assays identify the kinase inhibitors in vitro, the NanoBRET target engagement assay serves to determine the direct interaction of the compounds binding to target kinases in cells.
(§3) HEK293 cells transiently expressing NanoLuc-DDR1 fusion vector were seeded into 384-well plates and treated with the Tracer K-4 and compound for 1 hour. The BRET signal was measured on an EnVision 2104 multilabel microplate reader. NanoBRET Target Engagement Assay in HEK293 cells transiently transfected with KIT and CSF1R-NanoLuc Fusion Vector. HEK293 cells were transfected with […] KIT or CSF1R-NanoLuc Fusion Vector and […] carrier DNA. The transfected cells were treated with test compounds (starting at 10 μM, 10-dose with 3-fold dilution) and reference compound (desatinib) (starting at 1 μM, 10-dose with 3-fold dilution). Percent inhibition due to compound activity was calculated to determine IC50.

[3] = molecular target: T3, CSF1R-NanoLuc fusion in HEK293 cells (Homo sapiens, UniProt P07333); assay: NanoBRET cellular target engagement assay, CSF-1R; assay type: cell-based
T3 construct: expressed in transfected cells; host or cells: HEK293, transient transfection
T3 sequence (P07333 20-972): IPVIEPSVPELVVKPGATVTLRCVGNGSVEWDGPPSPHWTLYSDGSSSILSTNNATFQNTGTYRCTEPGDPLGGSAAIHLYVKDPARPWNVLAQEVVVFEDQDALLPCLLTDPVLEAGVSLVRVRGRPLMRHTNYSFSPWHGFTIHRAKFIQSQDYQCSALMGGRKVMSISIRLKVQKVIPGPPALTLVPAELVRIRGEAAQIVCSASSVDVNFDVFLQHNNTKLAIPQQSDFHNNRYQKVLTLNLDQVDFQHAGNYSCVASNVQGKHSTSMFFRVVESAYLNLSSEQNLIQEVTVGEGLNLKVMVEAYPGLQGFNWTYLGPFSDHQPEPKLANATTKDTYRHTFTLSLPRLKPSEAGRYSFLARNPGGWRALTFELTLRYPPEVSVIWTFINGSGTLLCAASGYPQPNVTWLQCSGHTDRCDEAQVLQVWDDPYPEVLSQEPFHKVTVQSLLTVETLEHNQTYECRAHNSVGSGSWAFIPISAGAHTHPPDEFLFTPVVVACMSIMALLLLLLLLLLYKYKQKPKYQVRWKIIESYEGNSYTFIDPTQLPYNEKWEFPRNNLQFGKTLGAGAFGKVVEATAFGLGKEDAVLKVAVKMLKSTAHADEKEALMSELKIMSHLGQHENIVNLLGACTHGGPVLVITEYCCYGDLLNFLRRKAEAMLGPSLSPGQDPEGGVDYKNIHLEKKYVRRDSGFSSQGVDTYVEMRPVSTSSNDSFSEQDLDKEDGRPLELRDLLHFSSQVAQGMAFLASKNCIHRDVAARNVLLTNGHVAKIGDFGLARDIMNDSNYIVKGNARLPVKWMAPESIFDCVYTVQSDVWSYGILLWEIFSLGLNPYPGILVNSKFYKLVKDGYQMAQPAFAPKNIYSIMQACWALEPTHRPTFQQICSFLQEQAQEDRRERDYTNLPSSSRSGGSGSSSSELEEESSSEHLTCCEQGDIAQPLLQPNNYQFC
Procedure: as §1, §2, §3

[4] = Caco-2 permeability assay; assay type: in vitro ADME; details: human
Procedure: Exemplary compounds were tested for cell permeability in Caco-2, MDCKII-MDR1 and MDCKII-BCRP cell lines with efflux transporter engagement inferred from the efflux ratios determined. Procedures and results are described below. […] This feature of certain compounds is in part due to efflux transporter engagement. See, for instance, exemplary such compounds included in data tables below.
The transport buffer in the study was HBSS with 10.0 mM HEPES at pH 7.40±0.05. Test compound was tested at 2.00 μM bi-directionally in duplicate. Digoxin was tested at 10.0 μM bi-directionally in duplicate, while nadolol and metoprolol were tested at 2.00 μM in A to B direction in duplicate. Final DMSO concentration was adjusted to less than 1%. The plate was incubated for 2 hours in CO2 incubator at 37±1° C., with 5% CO2 at saturated humidity without shaking. And all samples after mixed with acetonitrile containing internal standard were centrifuged at 3200×g for 10 min. For nadolol and metoprolol, 200 μL supernatant solution was diluted with 600 μL ultra-pure water for LC-MS/MS analysis. For digoxin and test compounds, 200 μL supernatant solution was diluted with 200 μL ultra-pure water for LC-MS/MS analysis. Concentrations of test and control compounds in starting solution, donor solution, and receiver solution were quantified by LC-MS/MS methodologies, using peak area ratio of analyte/internal standard.
After transport assay, lucifer yellow rejection assay was applied to determine the Caco-2 cell monolayer integrity.
[…] And permeation of lucifer yellow through the monolayer was measured to evaluate the cellular integrity.
The apparent permeability coefficient Papp (cm/s) was calculated using the equation: Papp=(dCr/dt)×Vr/(A×C0), where dCr/dt is the cumulative concentration of compound in the receiver chamber as a function of time (μM/s); Vr is the solution volume in the receiver chamber (0.075 mL on the apical side, 0.25 mL on the basolateral side); A is the surface area for the transport, i.e. 0.0804 cm^2 for the area of the monolayer; C0 is the initial concentration in the donor chamber (μM).
The efflux ratio was calculated using the equation: Efflux Ratio=Papp (BA)/Papp(AB).
Percent recovery was calculated using the equation: % Solution Recovery=100×[(Vr×Cr)+(Vd×Cd)]/(Vd×C0), where Vd is the volume in the donor chambers (0.075 mL on the apical side, 0.25 mL on the basolateral side); Cd and Cr are the final concentrations of transport compound in donor and receiver chambers, respectively.

T1 sequence (P16234 24-1089): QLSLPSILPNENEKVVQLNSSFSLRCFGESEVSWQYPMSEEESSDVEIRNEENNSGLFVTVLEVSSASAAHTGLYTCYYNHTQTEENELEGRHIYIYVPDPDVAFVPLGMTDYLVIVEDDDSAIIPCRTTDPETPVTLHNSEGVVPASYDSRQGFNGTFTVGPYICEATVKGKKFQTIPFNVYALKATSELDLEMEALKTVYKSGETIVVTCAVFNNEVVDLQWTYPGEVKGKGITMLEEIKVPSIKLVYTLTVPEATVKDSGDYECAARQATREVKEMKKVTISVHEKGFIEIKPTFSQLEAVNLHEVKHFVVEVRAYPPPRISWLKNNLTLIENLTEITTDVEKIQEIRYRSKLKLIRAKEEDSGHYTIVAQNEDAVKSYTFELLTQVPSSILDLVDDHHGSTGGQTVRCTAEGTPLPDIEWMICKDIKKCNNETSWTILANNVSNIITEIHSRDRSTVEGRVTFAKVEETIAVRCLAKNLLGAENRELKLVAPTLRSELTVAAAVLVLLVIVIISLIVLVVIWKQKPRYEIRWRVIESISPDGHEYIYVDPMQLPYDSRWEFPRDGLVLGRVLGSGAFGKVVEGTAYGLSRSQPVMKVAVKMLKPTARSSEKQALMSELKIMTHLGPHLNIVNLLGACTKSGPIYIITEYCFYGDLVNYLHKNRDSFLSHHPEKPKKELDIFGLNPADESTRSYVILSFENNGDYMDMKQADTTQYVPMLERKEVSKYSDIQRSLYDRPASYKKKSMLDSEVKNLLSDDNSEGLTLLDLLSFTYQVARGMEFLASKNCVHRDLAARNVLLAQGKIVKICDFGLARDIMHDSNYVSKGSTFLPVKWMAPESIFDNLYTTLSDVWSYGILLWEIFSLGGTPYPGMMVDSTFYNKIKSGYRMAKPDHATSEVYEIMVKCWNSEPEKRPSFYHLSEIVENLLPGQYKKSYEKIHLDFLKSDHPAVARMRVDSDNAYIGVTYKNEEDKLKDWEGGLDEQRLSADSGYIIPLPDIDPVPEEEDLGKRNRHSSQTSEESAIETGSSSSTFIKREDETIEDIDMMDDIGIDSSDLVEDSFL

| Structure (SMILES) | IC50 [1] [nM] | also measured |
| --- | --- | --- |
| Cc1ccc(-c2noc(CC(O)C(F)F)n2)cc1NC(=O)c1cnc2ccccn12 (stereo not drawn) [Compound I-114] | 5000 to 30000 | IC50 [2]: ≤ 100 nM; IC50 [3]: > 10000 nM |
| COC(=O)N1CC(c2nc(-c3ccc(Cl)c(NC(=O)c4cnc5ccccn45)c3)no2)C1 [Compound I-339] | 500 to 5000 |  |
| Cc1ccc(-c2noc([C@H]3C[C@@H]3F)n2)cc1NC(=O)c1cnn2ccccc12 [Compound I-109] | 500 to 5000 |  |
| CCOc1ccn2c(C(=O)Nc3cc(-c4noc([C@H]5C[C@@H]5F)n4)ccc3C)cnc2c1 [Compound I-93] | 50 to 500 |  |
| COc1ccn2c(C(=O)Nc3cc(-c4noc(C[C@H](C)O)n4)ccc3C)cnc2c1 [Compound I-94] | 50 to 500 |  |
| Cc1ccc(-c2noc([C@H]3C[C@@H]3F)n2)cc1NC(=O)c1cnc2cc(OC(F)(F)F)ccn12 [Compound I-87] | 5000 to 30000 |  |
| Cc1ccc(-c2noc([C@H]3C[C@@H]3F)n2)cc1NC(=O)c1cnc2ccc(F)cn12 [Compound I-288] | 500 to 5000 |  |
| COc1ccc2ncc(C(=O)Nc3cc(-c4noc(C[C@@H](C)O)n4)ccc3C)n2c1 [Compound I-119] | 500 to 5000 |  |
| COc1ccn2c(C(=O)Nc3cc(-c4noc(CC5CC(F)(F)C5)n4)ccc3C)cnc2c1 [Compound I-91] | 50 to 500 |  |
| Cc1ccc(-c2noc([C@H]3C[C@@H]3F)n2)cc1NC(=O)c1cnc2cc(COCC(C)(C)O)ccn12 [Compound I-71, N-[5-[5-[(1R,2S)-2-fluorocyclopropyl]-1,2,4-oxadiazol-3-yl]-2-methyl-phenyl]-7-[(2-hydroxy-2-methyl-propoxy)methyl]imidazo[1,2-a]pyridine-3-carboxamide] | 5000 to 30000 | efflux ratio at 2 h, 2 μM ([4]; Caco-2, pH 7.4): 6.78; Papp A→B at 2 h, 2 μM ([4]; pH 7.4, Caco-2, apical to basolateral): 6.65 ×10⁻⁶ cm/s; IC50 [2]: ≤ 100 nM; IC50 [3]: > 10000 nM |
| Cc1ccc(-c2noc(C3CC(OCCF)C3)n2)cc1NC(=O)c1cnc2ccccn12 (stereo not drawn) [Compound I-369] | 5000 to 30000 |  |
| COc1ccn2c(C(=O)Nc3cc(-c4noc(C5CC(F)(F)C5)n4)ccc3C)cnc2c1 [Compound I-96] | 50 to 500 |  |
| Cc1ccc(-c2noc([C@H]3C[C@@H]3F)n2)cc1NC(=O)c1cnc2cc(OC(C)C)ccn12 [Compound I-88] | 500 to 5000 | IC50 [2]: ≤ 100 nM; IC50 [3]: > 10000 nM |
| COCCOCc1ccn2c(C(=O)Nc3cc(-c4noc([C@H]5C[C@@H]5F)n4)ccc3C)cnc2c1 [Compound I-84] | 500 to 5000 |  |
| Cc1ccc(-c2noc(CCO)n2)cc1NC(=O)c1cnc2ccccn12 [Compound I-306] | 500 to 5000 |  |
| COc1ccn2c(C(=O)Nc3cc(-c4noc(CC(O)C(F)F)n4)ccc3C)cnc2c1 (single isomer, unassigned) [Compound I-76] | 50 to 500 |  |
| COC(=O)N1CC(c2nc(-c3ccc(C(F)F)c(NC(=O)c4cnc5ccccn45)c3)no2)C1 [Compound I-225] | 5000 to 30000 |  |
| Cc1ccc(-c2noc(CC(C)(C)O)n2)cc1NC(=O)c1cnc2ccccn12 [Compound I-336] | 50 to 500 |  |
| Cc1ccc(-c2noc(CC(O)C(F)F)n2)cc1NC(=O)c1cnc2ccccn12 (stereo not drawn) [Compound I-122] | 500 to 5000 |  |
